Earlier results, collected in patent US20220313614A1, “EN[…] […] AND METHODS OF PREPARATION THEREOF” (Altria Client Services LLC, priority 2021, published 2022).

Conditions: free base (non-protonated)

CN1CCCC1c1cccnc1 (stereo not shown) [Free-base nicotine, 3-(1-methyl-2-pyrrolidinyl) pyridine]
pKa value: about 8
